Test results as given in patent US8680108B2, “Substituted fused aryl and heteroaryl derivatives as PI3K inhibitors” (Incyte Corporation, priority 2009, dated 2014).
Counter-ions that a name gives are not always drawn. Like-named read-outs stand apart in the source and are kept apart here.

Target: T1, PI3Kδ (p110δ/p85α) (Homo sapiens, UniProt O00329)
T1 construct: purchased Millipore (Bedford, Mass.)
Assay: PI3Kδ scintillation proximity assay
Format: biochemical
From the text: Materials: [γ-^33P]ATP (10 mCi/mL) was purchased from Perkin-Elmer (Waltham, Mass.). Lipid kinase substrate, D-myo-Phosphatidylinositol 4,5-bisphosphate (PtdIns(4,5)P2)D (+)-sn-1,2-di-O-octanoylglyceryl, 3-O-phospho linked (PIP2), CAS 204858-53-7, was purchased from Echelon Biosciences (Salt Lake City, Utah). PI3Kδ (p110δ/p85α) was purchased from Millipore (Bedford, Mass.). ATP, MgCl2, DTT, EDTA, MOPS and CHAPS were purchased from Sigma-Aldrich (St. Louis, Mo.). Wheat Germ Agglutinin (WGA) YSi SPA Scintillation Beads was purchased from GE healthcare life sciences (Piscataway, N.J.).
Assay: The kinase reaction was conducted in polystyrene 384-well matrix white plate from Thermo Fisher Scientific in a final volume of 25 μL. Inhibitors were first diluted serially in DMSO and added to the plate wells before the addition of other reaction components. The final concentration of DMSO in the assay was 0.5%. The PI3K assays were carried out at room temperature in 20 mM MOPS, pH 6.7, 10 mM MgCl2, 5 mM DTT and CHAPS 0.03%. Reactions were initiated by the addition of ATP, the final reaction mixture consisted of 20 μM PIP2, 20 μM ATP, 0.2 μCi [γ-^33P] ATP, 4 nM PI3Kδ. Reactions were incubated for 210 minutes and terminated by the addition of 40 μL SPA beads suspended in quench buffer: 150 mM potassium phosphate pH 8.0, 20% glycerol. 25 mM EDTA, 400 μM ATP. The final concentration of SPA beads is 1.0 mg/mL. After the plate sealing, plates were shaken overnight at room temperature and centrifuged at 1800 rpm for 10 minutes, the radioactivity of the product was determined by scintillation counting on Topcount (Perkin-Elmer). IC50 determination was performed by fitting the curve of percent control activity versus the log of the inhibitor concentration using the GraphPad Prism® 3.0 software.

T1 sequence (O00329 whole entry): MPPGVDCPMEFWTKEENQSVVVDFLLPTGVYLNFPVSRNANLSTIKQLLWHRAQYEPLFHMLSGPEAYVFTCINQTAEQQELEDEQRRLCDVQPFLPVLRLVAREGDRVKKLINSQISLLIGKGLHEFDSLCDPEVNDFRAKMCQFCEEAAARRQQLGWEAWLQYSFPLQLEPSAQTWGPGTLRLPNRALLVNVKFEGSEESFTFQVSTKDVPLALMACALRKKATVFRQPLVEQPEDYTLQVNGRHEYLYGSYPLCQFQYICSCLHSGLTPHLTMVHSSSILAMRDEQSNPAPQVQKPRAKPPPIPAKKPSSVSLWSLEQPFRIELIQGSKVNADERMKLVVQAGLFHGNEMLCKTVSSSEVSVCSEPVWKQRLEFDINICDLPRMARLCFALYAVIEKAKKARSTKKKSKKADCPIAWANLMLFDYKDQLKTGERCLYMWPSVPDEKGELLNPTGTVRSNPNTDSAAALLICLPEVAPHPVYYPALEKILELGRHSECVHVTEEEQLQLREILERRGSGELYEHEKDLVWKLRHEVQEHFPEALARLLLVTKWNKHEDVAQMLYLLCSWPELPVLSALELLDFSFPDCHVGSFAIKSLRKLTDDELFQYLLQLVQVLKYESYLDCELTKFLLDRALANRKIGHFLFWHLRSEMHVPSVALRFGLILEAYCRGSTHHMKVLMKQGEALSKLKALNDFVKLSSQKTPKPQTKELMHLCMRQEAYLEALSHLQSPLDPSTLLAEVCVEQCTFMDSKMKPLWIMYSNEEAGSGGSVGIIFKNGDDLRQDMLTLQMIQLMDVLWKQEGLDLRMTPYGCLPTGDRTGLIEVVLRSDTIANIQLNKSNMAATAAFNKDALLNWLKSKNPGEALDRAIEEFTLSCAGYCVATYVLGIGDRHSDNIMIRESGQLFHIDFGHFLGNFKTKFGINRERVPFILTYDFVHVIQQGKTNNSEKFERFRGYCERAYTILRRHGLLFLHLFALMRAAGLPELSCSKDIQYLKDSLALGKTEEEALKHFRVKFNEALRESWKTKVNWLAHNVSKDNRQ
T1 sequence (P27986 whole entry partner): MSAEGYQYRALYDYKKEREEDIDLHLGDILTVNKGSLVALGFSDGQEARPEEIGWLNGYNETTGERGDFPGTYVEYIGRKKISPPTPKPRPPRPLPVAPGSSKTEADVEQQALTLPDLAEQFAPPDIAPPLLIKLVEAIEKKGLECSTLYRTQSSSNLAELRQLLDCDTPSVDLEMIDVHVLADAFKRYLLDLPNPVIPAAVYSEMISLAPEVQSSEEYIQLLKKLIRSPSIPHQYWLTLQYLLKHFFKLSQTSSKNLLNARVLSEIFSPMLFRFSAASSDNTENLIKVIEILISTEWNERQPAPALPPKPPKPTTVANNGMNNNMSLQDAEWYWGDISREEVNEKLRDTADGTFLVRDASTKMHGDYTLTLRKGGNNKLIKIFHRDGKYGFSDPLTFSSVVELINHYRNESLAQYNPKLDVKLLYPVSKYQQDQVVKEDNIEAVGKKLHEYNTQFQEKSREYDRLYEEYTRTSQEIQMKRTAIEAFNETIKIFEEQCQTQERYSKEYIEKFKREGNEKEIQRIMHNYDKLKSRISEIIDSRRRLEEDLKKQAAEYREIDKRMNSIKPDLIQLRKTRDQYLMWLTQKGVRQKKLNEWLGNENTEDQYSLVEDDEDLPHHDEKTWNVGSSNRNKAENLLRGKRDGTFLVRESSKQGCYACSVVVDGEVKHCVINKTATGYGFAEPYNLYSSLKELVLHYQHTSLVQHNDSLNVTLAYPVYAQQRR

| IC50 [nM] | SMILES | other results |
| --- | --- | --- |
| 50 to 100 | CC(Nc1ncnc2[nH]cnc12)c1cc(C#N)c2cccnc2c1-c1cccc(F)c1 (stereo not shown) [Example 52, 8-(3-fluorophenyl)-7-[1-(9H-purin-6-ylamino)ethyl]quinoline-5-carbonitrile] | – |
| 50 to 100 | CC(Nc1ncnc2[nH]cnc12)c1nc(C#N)c2ccccc2c1-c1cccc(F)c1 (stereo not shown) [Example 54, 4-(3-fluorophenyl)-3-[1-(9H-purin-6-ylamino)ethyl]isoquinoline-1-carbonitrile] | – |
| < 50 | CC(Nc1ncnc2[nH]cnc12)c1cc(F)c2cccnc2c1N1CCN(C2CCC2)CC1 (stereo not shown) [Example 55, N-{1-[8-(4-Cyclobutylpiperazin-1yl)-5-fluoroquinolin-7-yl]ethyl}-9H-purin-6-amine] | – |
| < 50 | CC(Nc1ncnc2[nH]cnc12)c1cc(Cl)c2ccncc2c1-c1cccc(F)c1 (stereo not shown) [Example 56, N-{1-[5-Chloro-8-(3-fluorophenyl)isoquinolin-7-yl]ethyl}-9H-purin-6-amine] | – |
| < 50 | CC(Nc1ncnc2[nH]cnc12)c1cc(Cl)c2cccnc2c1N1CCN(CCO)CC1 (stereo not shown) [Example 58, 2-(4-{5-Chloro-7-[1-(9H-purin-6-ylamino)ethyl]quinolin-8-yf}piperazin-1-yl)ethanol tris(trifluoroacetate)] | – |
| 100 to 250 | CC(Nc1ncnc2[nH]cnc12)c1cc(Cl)c2cccnc2c1N1CCC(C#N)CC1 (stereo not shown) [Example 59, 1-{5-Chloro-7-[1-(9H-purin-6-ylamino)ethyl]quinolin-8-yl]piperidine-4-carbonitrile bis(trifluoroacetate)] | – |
| 250 to 500 | CC(Nc1ncnc2[nH]cnc12)c1cc(Cl)c2cccnc2c1N1CCCC(F)C1 (stereo not shown) [Example 61, N-{1-[5-Chloro-8-(3-fluoropiperidin-1-yl)quinolin-7-yl]ethyl}-9H-purin-6-amine bis(trifluoroacetate)] | – |
| 100 to 250 | CC(Nc1ncnc2[nH]cnc12)c1cc(Cl)c2cccnc2c1N1CCC(F)CC1 (stereo not shown) [Example 62, N-{1-[5-Chloro-8-(4-fluoropiperidin-1-yl)quinolin-7-yl]ethyl}-9H-purin-6-amine bis(trifluoroacetate)] | – |
| 100 to 250 | CC(Nc1ncnc2[nH]cnc12)c1cc(Cl)c2cccnc2c1N1CCC(CO)CC1 (stereo not shown) [Example 64, (1-{5-Chloro-7-[1-(9H-purin-6-ylamino)ethyl]quinolin-8-yl}piperidin-4-yl)methanol tris(trifluoroacetate)] | – |
| 50 to 100 | CC(Nc1ncnc2[nH]cnc12)c1cc(Cl)c2cccnc2c1N1CCN(C2CCCCC2)CC1 (stereo not shown) [Example 65, N-{1-[5-Chloro-8-(4-cyclohexylpiperazin-1-yl)quinolin-7-yl]ethyl}-9H-purin-6-amine tris(trifluoroacetate)] | – |
| < 50 | CC(Nc1ncnc2[nH]cnc12)c1cc(Cl)c2cccnc2c1N1CCN(C2CC2)CC1 (stereo not shown) [Example 66, N-{1-[5-Chloro-8-(4-cyclopropylpiperazin-1-yl)quinolin-7-yl]ethyl}-9H-purin-6-amine tris(trifluoroacetate)] | – |
| < 50 | CC(Nc1ncnc2[nH]cnc12)c1cc(Cl)c2cccnc2c1N1CCN(C2CCC2)CC1 (stereo not shown) [Example 69, N-{1-[5-Chloro-8-(4-cyclobutylpiperazin-1-yl)quinolin-7-yl]ethyl}-9H-purin-6-amine tris(trifluoroacetate)] | – |
| 50 to 100 | CC(Nc1ncnc2[nH]cnc12)c1cc(Cl)c2cccnc2c1N1CCC(N2CCCCC2)CC1 (stereo not shown) [Example 70, N-{1-[8-(1,4′-Bipiperidin-1′-yl)-5-chloroquinolin-7-yl]ethyl}-9H-purin-6-amine tris(trifluoroacetate)] | – |
| 50 to 100 | COC1CCN(c2c(C(C)Nc3ncnc4[nH]cnc34)cc(Cl)c3cccnc23)CC1 (stereo not shown) [Example 71, N-{1-[5-Chloro-8-(4-methoxypiperidin-1-yl)quinolin-7-yl]ethyl}-9H-purin-6-amine bis(trifluoroacetate)] | – |
| > 1000 | CC(Nc1ncnc2[nH]cnc12)c1cc(Cl)c2cccnc2c1N1CCC(c2ccccc2)CC1 (stereo not shown) [Example 72, N-{1-[5-Chloro-8-(4-phenylpiperidin-1-yl)quinolin-7-yl]ethyl}-9H-purin-6-amine bis(trifluoroacetate)] | – |
| 100 to 250 | CC(Nc1ncnc2[nH]cnc12)c1cc(Cl)c2cccnc2c1N1CCC(CCO)CC1 (stereo not shown) [Example 73, 2-(1-{5-Chloro-7-[1-(9H-purin-6-ylamino)ethyl]quinolin-8-yl}piperidin-4-yl)ethanol bis(trifluoroacetate)] | – |
| < 50 | CC(Nc1ncnc2[nH]cnc12)c1cc(Cl)c2cccnc2c1N1CCN(Cc2ccncc2)CC1 (stereo not shown) [Example 74, N-(1-{5-Chloro-8-[4-(pyridin-4-ylmethyl)piperazin-1-yl]quinolin-7-yl}ethyl)-9H-purin-6-amine tris(trifluoroacetate)] | – |

The remaining lines, values behind:

| SMILES | IC50 [nM] | other results |
| --- | --- | --- |
| CC(=O)N[C@H]1CCN(c2c(C(C)Nc3ncnc4[nH]cnc34)cc(Cl)c3cccnc23)C1 (stereo partly drawn) [Example 13, N-((3S)-1-{5-chloro-7-[1-(9H-purin-6-ylamino)ethyl]quinolin-8-yl}pyrrolidin-3-yl}acetamide bis-trifluoroacetate] | < 50 | – |
| CC(Nc1ncnc2[nH]cnc12)c1cc(Cl)c2cccnc2c1-c1cccc(F)c1 (stereo not shown) [Example 15, N-{1-[5-chloro-8-(3-fluorophenyl)quinolin-7-yl]ethyl}-9H-purin-6-amine bis-trifluoroacetate] | < 50 | – |
| CC(Nc1ncnc2[nH]cnc12)c1cc(F)c2ccnnc2c1-c1cccc(F)c1 (stereo not shown) [Example 19, N-{1-[5-Fluoro-8-(3-fluorophenyl)cinnolin-7-yl]ethyl}-9H-purin-6-amine] | 100 to 250 | – |
| Fc1cccc(-c2c(CNc3ncnc4[nH]cnc34)cc(Cl)c3ccnnc23)c1 [Example 31, N-{[5-Chloro-8-(3-fluorophenyl)cinnolin-7-yl]methyl}-9H-purin-6-amine trifluoroacetate] | 500 to 1000 | – |
| CNC(=O)c1cc(F)cc(-c2c(C(C)Nc3ncnc4[nH]cnc34)cc(Cl)c3ccnnc23)c1 (stereo not shown) [Example 40, 3-{5-Chloro-7-[1-(9H-purin-6-ylamino)ethyl]cinnolin-8-yl}-5-fluoro-N-methylbenzamide] | > 1000 | – |
| COc1ccc(-c2c(C(C)Nc3ncnc4[nH]cnc34)cc(Cl)c3ccnnc23)cc1F (stereo not shown) [Example 41, N-{1-[5-Chloro-8-(3-fluoro-4-methoxyphenyl)cinnolin-7-yl]ethyl}-9H-purin-6-amine] | 500 to 1000 | – |
| CC(Nc1ncnc2[nH]cnc12)c1cc(Cl)c2ccnnc2c1-c1ccnc(F)c1 (stereo not shown) [Example 42, N-{1-[5-Chloro-8-(2-fluoropyridin-4-yl)cinnolin-7-yl]ethyl}-9H-purin-6-amine] | 500 to 1000 | – |
| CC(Nc1ncnc2[nH]cnc12)c1cc(Cl)c2cccnc2c1N1CCC(O)CC1 (stereo not shown) [Example 43, 1-{5-Chloro-7-[1-(9H-purin-6-ylamino)ethyl]quinolin-8-yl}piperidin-4-ol] | < 50 | – |
| Cc1nc(C(C)Nc2ncnc3[nH]cnc23)c(-c2cccc(F)c2)c2ccccc12 (stereo not shown) [Example 44, N-{1-[4-(3-Fluorophenyl)-1-methylisoquinolin-3-yl]ethyl}-9H-purin-6-amine] | 100 to 250 | – |
| CC(Nc1ncnc2[nH]cnc12)c1cc(Cl)c2ccccc2c1N1CCC(O)CC1 (stereo not shown) [Example 45, 1-{4-Chloro-2-[1-(9H-purin-6-ylamino)ethyl]-1-naphthyl}piperidin-4-ol] | < 50 | – |
| CC(Nc1ncnc2[nH]cnc12)c1cc(Cl)c2ccccc2c1-c1cccc(F)c1 (stereo not shown) [Example 46, N-{1-[4-Chloro-1-(3-fluorophenyl)-2-naphthyl]ethyl}-9H-purin-6-amine] | 100 to 250 | – |
| CC(Nc1ncnc2[nH]cnc12)c1cc(Cl)c2cccnc2c1N1CCC(F)(F)CC1 (stereo not shown) [Example 47, N-{1-[5-Chloro-8-(4,4-difluoropiperidin-1-yl)quinolin-7-yl]ethyl}-9H-purin-6-amine] | 500 to 1000 | – |
| CC(Nc1ncnc2[nH]cnc12)c1cc(Cl)c2cccnc2c1N1CCC(O)(c2ccccc2)CC1 (stereo not shown) [Example 49, 1-{5-Chloro-7-[1-(9H-purin-6-ylamino)ethyl]quinolin-8-yl}-4-phenylpiperidin-4-ol] | > 1000 | – |
| Cc1cc(C(C)Nc2ncnc3[nH]cnc23)c(-c2cccc(F)c2)c2ncccc12 (stereo not shown) [Example 50, N-{1-[8-(3-Fluorophenyl)-5-methylquinolin-7-yl]ethyl}-9H-purin-6-amine] | 100 to 250 | – |
| CCc1cc(C(C)Nc2ncnc3[nH]cnc23)c(-c2cccc(F)c2)c2ncccc12 (stereo not shown) [Example 51, N-{1-[5-Ethyl-8-(3-fluorophenyl)quinolin-7-yl]ethyl}-9H-purin-6-amine bis(trifluoroacetate)] | 50 to 100 | – |
| CC(Nc1ncnc2[nH]cnc12)c1cc(Cl)c2cccnc2c1N1CCC(c2ccccc2)C1 (stereo not shown) [Example 76, N-{1-[5-Chloro-8-(3-phenylpyrrolidin-1-yl)quinolin-7-yl]ethyl}-9H-purin-6-amine tris(trifluoroacetate)] | – | IC50 (separated isomer, 1st peak): 250 to 500 nM; IC50 (separated isomer, 2nd peak): 250 to 500 nM |
